The values below come from patent US8802672B2, “Pyrimidinyl-piperazines useful as D3/D2 receptor ligands” (Richter Gedeon Nyrt., priority 2007, dated 2014).

Series [1] deals with male Wistar rats. Briefly: Catalepsy test. The format is in vivo. To be noted: rat; for Catalepsy (MED): oral, minimum effective cataleptic dose; for TI, therapeutic index - catalepsy MED divided by amphetamine hypermotility ED50: in vivo.
Protocol: Thirty minutes after the oral treatment with the test compounds male Wistar rats weighing 200-220 g (n=10/group) were placed in extra-ordinary position: placing both forepaws of the rat on a 10 cm high podium. […] The frequency of cataleptic animals was determined at one, two, three, four and five hours after the treatment. Minimum effective (cataleptic) dose was defined as the dose causing catalepsy at least at two readings (i.e. either at two time points in the same animal or in two different animals at any of the time points).
Series [2] deals with rat recombinant D3 receptors (Rattus norvegicus (Rat), UniProt P19020). As to the kind of experiment: D3 receptor binding. To be noted: for Ki: [3H]spiperone, rat recombinant D3 in Sf9 cells.
Chain of rat recombinant D3 receptors (P19020 whole entry): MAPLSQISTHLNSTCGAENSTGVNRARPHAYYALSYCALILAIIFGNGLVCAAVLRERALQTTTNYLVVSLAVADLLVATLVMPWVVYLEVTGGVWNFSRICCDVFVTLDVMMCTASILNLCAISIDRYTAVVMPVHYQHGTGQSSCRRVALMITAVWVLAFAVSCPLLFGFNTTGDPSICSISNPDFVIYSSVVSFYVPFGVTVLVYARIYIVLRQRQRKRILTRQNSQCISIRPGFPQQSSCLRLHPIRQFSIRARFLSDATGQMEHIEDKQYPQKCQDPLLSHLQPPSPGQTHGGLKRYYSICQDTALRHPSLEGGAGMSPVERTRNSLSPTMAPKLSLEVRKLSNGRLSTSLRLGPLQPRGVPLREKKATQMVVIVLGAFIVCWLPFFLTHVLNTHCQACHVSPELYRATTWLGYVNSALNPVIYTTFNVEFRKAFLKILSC
The target of series [3] is D2 receptor (rat brain striatal membrane preparation) (Rattus norvegicus (Rat), UniProt P61169). Briefly: D2 receptor binding. As to conditions: [3H]spiperone, rat striatal membranes.
Chain of D2 receptor (rat brain striatal membrane preparation) (P61169 whole entry): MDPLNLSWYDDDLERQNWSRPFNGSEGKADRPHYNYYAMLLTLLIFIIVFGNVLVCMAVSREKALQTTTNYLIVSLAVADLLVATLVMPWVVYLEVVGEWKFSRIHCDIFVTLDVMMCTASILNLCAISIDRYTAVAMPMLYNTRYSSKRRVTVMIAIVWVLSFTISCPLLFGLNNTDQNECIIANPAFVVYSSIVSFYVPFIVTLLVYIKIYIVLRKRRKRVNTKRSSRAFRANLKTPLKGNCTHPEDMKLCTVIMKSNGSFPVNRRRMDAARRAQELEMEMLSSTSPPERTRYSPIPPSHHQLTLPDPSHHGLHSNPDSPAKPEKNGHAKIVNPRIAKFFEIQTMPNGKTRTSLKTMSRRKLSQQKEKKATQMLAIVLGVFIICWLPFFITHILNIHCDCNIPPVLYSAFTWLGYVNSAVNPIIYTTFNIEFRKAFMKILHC
Protocol: Non-specific binding was determined in the presence of 1 μM (+) butaclamol.
Series [4] has as its target adrenergic alpha-1 receptors (rat cortical membrane preparation). Briefly: Alpha-1 receptor binding. To be noted: [3H]-prazosine, rat cortical membranes; read-out: α-1 Ki.
Protocol: The non-specific binding was determined in the presence of 10 μM phentolamine.
Series [5] has as its system male Wistar rats. Briefly: Amphetamine-induced hypermotility. It counts as in vivo. As to conditions: oral, rat, d-amphetamine 0.5 mg/kg sc.; for ED50: read-out: Inhibition of amphetamine-induced hypermotility (ED50). As for the experimental part:
4. Amphetamine-Induced Hypermotility
One hour after the oral administration of doses of the test compound or vehicle, male Wistar rats were subcutaneously treated with d-amphetamine (0.5 mg/kg, sc.) and were individually placed in activity cages for one hour. Locomotor activity was measured in a four-channel activity monitor equipped with infrared photobeams Horizontal movement was determined as the number of beam interruptions. Mean±SE of horizontal activity data of each group was calculated. Percent inhibition of amphetamine-induced increase in locomotion was calculated for each dose of the tested compound. The ED-50 value was determined by linear regression fitted to the dose-response plot.

Series [6] has as its system male Wistar rats. Briefly: Scopolamine-induced learning disturbance in the water-labyrinth. It counts as in vivo, rat. As for the experimental part:
6. Scopolamine-Induced Learning Disturbance in the Water-Labyrinth
The learning process of rats was assessed in a 3-choice point water-labyrinth system. The number of directional turning errors was recorded in three daily trials for three experimental days. Male Wistar rats weighing 180-200 g (n=10 per groups) were treated orally with vehicle or the test compounds 1 hour before each daily session. Scopolamine (3 mg/kg ip.) as amnestic agent was injected 30 minutes prior to the first daily trial. Mean±SE of errors committed in all the trials was calculated in each group. Percent inhibition of scopolamine-induced increase in the number of errors was calculated for each dose of the tested compound.

A value given as a limit tells only on which side of the number the result lay.

Take `CNc1nc(Cl)c(Cl)c(N2CCN(CC[C@H]3CC[C@H](NC(C)=O)CC3)CC2)n1` [Compound 1, Trans-N-(4-{2-[4-(5,6-dichloro-2-methylamino-pyrimidin-4-yl)-piperazin-1-yl]-ethyl}-cyclohexyl)-acetamide]: in series [1], the “Catalepsy (MED)” value turned out to be 100 mg/kg and the “TI, therapeutic index - catalepsy MED divided by amphetamine hypermotility ED50” value was determined as 714. For the same compound, in series [2], the “Sel. = D2/D3 selectivity, Ki for D2 receptor divided by Ki for D3 receptor” value was found to be 22 and the Ki was below 1 nM. Also, in series [3], the Ki was in the range of 15 to 50 nM.
Turning to `CNc1nc(Cl)c(Cl)c(N2CCN(CC[C@H]3CC[C@H](NC(N)=O)CC3)CC2)n1` [Compound 2, Trans-(4-{2-[4-(5,6-dichloro-2-methylamino-pyrimidin-4-yl)-piperazin-1-yl]-ethyl}-cyclohexyl)-urea], the “Sel. = D2/D3 selectivity, Ki for D2 receptor divided by Ki for D3 receptor” value in series [2] was determined as 27. Further, the Ki in series [4] is above 1000 nM.
`CCNc1nc(Cl)c(Cl)c(N2CCN(CC[C@H]3CC[C@H](NC(C)=O)CC3)CC2)n1` [Compound 6, trans-N-(4-{2-[4-(5,6-dichloro-2-ethylamino-pyrimidin-4-yl)-piperazin-1-yl]-ethyl}-cyclohexyl)-acetamide]: the “Sel. = D2/D3 selectivity, Ki for D2 receptor divided by Ki for D3 receptor” value in series [2] came out at 23. Moreover, the inhibition constant Ki in series [4] is above 1000 nM.
On to `CNc1nc(Cl)c(Cl)c(N2CCN(CC[C@H]3CC[C@H](NC(=O)N4CCOCC4)CC3)CC2)n1` [Compound 7, trans-morpholine-4-carboxylic acid (4-{2-[4-(5,6-dichloro-2-methylamino-pyrimidin-4-yl)-piperazin-1-yl]-ethyl}-cyclohexyl)-amide], for which, in series [4], the inhibition constant Ki is above 1000 nM.
With `CNc1nc(Cl)c(Cl)c(N2CCN(CC[C@H]3CC[C@H](NC(=O)N(C)C)CC3)CC2)n1` [Compound 8], the “Catalepsy (MED)” value in series [1] is reported as above 25 mg/kg. Moreover, in series [1], the “TI, therapeutic index - catalepsy MED divided by amphetamine hypermotility ED50” value is on record as above 179. In addition, the “Sel. = D2/D3 selectivity, Ki for D2 receptor divided by Ki for D3 receptor” value in series [2] was found to be 7. In addition, the inhibition constant Ki is 1 to 3 nM in series [2], 15 to 50 nM in series [3] and above 1000 nM in series [4]. The “Inhibition of amphetamine-induced hypermotility (ED50)” value in series [5] was found to be 0.14 mg/kg. Moreover, the results for the “% inhibition of scopolamine-induced learning disturbance” value (“% inhibition” for short) in series [6] (dose 0.025 mg/kg oral), in series [6] (dose 0.05 mg/kg oral) and in series [6] (dose 1 mg/kg oral) were 38%, 65% and 31%, respectively.
As to `CCNC(=O)N[C@H]1CC[C@H](CCN2CCN(c3nc(NC)nc(Cl)c3Cl)CC2)CC1` [Compound 10, Trans-1-(4-{2-[4-(5,6-dichloro-2-methylamino-pyrimidin-4-yl)-piperazin-1-yl]-ethyl}-cyclohexyl)-3-ethyl-urea], in series [2], the “Sel. = D2/D3 selectivity, Ki for D2 receptor divided by Ki for D3 receptor” value is recorded as 17.
Consider `CCC(=O)N[C@H]1CC[C@H](CCN2CCN(c3nc(NC)nc(Cl)c3Cl)CC2)CC1` [Compound 11], for which the “Sel. = D2/D3 selectivity, Ki for D2 receptor divided by Ki for D3 receptor” value in series [2] came out at 43. In addition, the Ki is below 1 nM in series [2], 5 to 15 nM in series [3] and above 1000 nM in series [4].
Take `Cc1cc2c(s1)Nc1ccccc1N=C2N1CCN(C)CC1` [Olanzapine, reference compound]: the median effective dose (ED50) in series [5] stood at 1.8 mg/kg. Also, the “% inhibition” value in series [6] (dose 1 mg/kg oral) is listed as −12%; in series [6] (dose 3 mg/kg oral), −49%.
On to `Cc1nc2n(c(=O)c1CCN1CCC(c3noc4cc(F)ccc34)CC1)CCCC2` [Risperidone, reference compound], for which the ED50 in series [5] was determined as 0.15 mg/kg. Moreover, the “% inhibition” value in series [6] (dose 0.5 mg/kg oral) was −15%.
